A word on the MIC: it is the lowest concentration that inhibits growth of the organism.

SMILES strings stand for the structures. ≈ marks a conversion by molar mass, not a printed value. Like-named read-outs stand apart in the source and are kept apart here.

The test system of the assay is MTB H37Rv. The assay can be described thus: Bacteriostasis experiment: MIC in 96-well plate, two-fold dilution method. Format: cell-based, Mycobacterium tuberculosis. The following applies: for MIC: Mycobacterium tuberculosis, ATCC 27294 / H37Rv, 240 h, read-out: Inhibitory activity against Mycobacterium tuberculosis, MIC, MTB H37Rv; for anti-mycobacterium tuberculosis MIC compared with the positive control drug INH: MTB H37Rv, statement on Table 1 data.

Where [1] appears, read: MTB H37Rv (ATCC 27294), 7H9 medium, 37° C., about 10 days.

For `CCCSc1nc2c(c(=O)[nH]1)C(c1ccc(Cl)c(N)c1)CC(=O)N2` (centres unmarked) [LSL-9-43, 2-propylmercapto-5-(3-amino-4-chlorophenyl)-5,6-dihydropyrido[2,3-d]pyrimidin-4,7(3H,8H)-dione], the minimum inhibitory concentration (MIC) under setting [1] amounted to 4 µg/mL (≈ 11 µM). For the molecule `CCCSc1nc2c(c(=O)[nH]1)C(c1ccccc1[N+](=O)[O-])CC(=O)N2` (centres unmarked) [LSL-10-03, 2-propylmercapto-5-(2-nitrophenyl)-5,6-dihydropyrido[2,3-d]pyrimidin-4,7(3H,8H)-dione], under setting [1], the MIC came out at 8 µg/mL (≈ 22.2 µM). The same measure, in the same setting: in the case of `CCCSc1nc2c(c(=O)[nH]1)C(c1cccc([N+](=O)[O-])c1)CC(=O)N2` (centres unmarked) [LSL-9-10, 2-propylmercapto-5-(3-nitrophenyl)-5,6-dihydropyrido[2,3-d]pyrimidin-4,7(3H,8H)-dione] it was 4 µg/mL (≈ 11.1 µM).

Regarding `CCCSc1nc2c(c(=O)[nH]1)C(c1ccoc1)CC(=O)N2` (centres unmarked) [LSL-11-38, 2-propylmercapto-5-(furan-3-y1)-5,6-dihydropyrido[2,3-d]pyrimidin-4,7(3H,8H)-dione], under setting [1], the “Inhibitory activity against Mycobacterium tuberculosis, MIC, MTB H37Rv” value was determined as 1 µg/mL. As to `CCCSc1nc2c(c(=O)[nH]1)C(c1ccccc1)CC(=O)N2` (centres unmarked) [LSL-10-05, 2-propylmercapto-5-phenyl-5,6-dihydropyrido[2,3-d]pyrimidin-4,7(3H,8H)-dione], the minimum inhibitory concentration (MIC) under setting [1] was determined as 8 µg/mL (≈ 25.4 µM).

For the molecule `CCCSc1nc2c(c(=O)[nH]1)C(c1cccnc1)CC(=O)N2` (centres unmarked) [LSL-11-28, 2-propylmercapto-5-(pyridin-3-yl)-5,6-dihydropyrido[2,3-d]pyrimidin-4,7(3H,8H)-dione], the MIC under setting [1] was 2 µg/mL (≈ 6.32 µM).

Turning to `CCCSc1nc2c(c(=O)[nH]1)C(C1CCCCC1)CC(=O)N2` (centres unmarked) [LSL-11-30, 2-propylmercapto-5-cyclohexyl-5,6-dihydropyrido[2,3-d]pyrimidin-4,7(3H,8H)-dione], the MIC under setting [1] stood at 16 µg/mL (≈ 49.8 µM). On to `CCCSc1nc2c(c(=O)[nH]1)C(c1ccc(OC)c([N+](=O)[O-])c1)CC(=O)N2` (centres unmarked) [LSL-9-40, 2-propylmercapto-5-(4-methoxy-3-nitrophenyl)-5,6-dihydropyrido[2,3-d]pyrimidin-4,7(3H,8H)-dione], for which the minimal inhibitory concentration (MIC) under setting [1] was 4 µg/mL (≈ 10.2 µM).

For the molecule `CCCSc1nc2c(c(=O)[nH]1)C(c1ccc(OC)cc1O)CC(=O)N2` (centres unmarked) [LSL-9-02, 2-propylmercapto-5-(2-hydroxy-4-methoxyphenyl)-5,6-dihydropyrido[2,3-d]pyrimidin-4,7(3H,8H)-dione], the “anti-mycobacterium tuberculosis MIC compared with the positive control drug INH” value is “equivalent to that of the positive control drug INH”. Moreover, the MIC under setting [1] was determined as 0.5 µg/mL (≈ 1.38 µM). Regarding `CCCSc1nc2c(c(=O)[nH]1)C(c1ccc(Cl)c([N+](=O)[O-])c1)CC(=O)N2` (centres unmarked) [LSL-7-48, 2-propylmercapto-5-(3-nitro-4-chlorophenyl)-5,6-dihydropyrido[2,3-d]pyrimidin-4,7(3H,8H)-dione], under setting [1], the MIC was 2 µg/mL (≈ 5.07 µM). For the molecule `CCCSc1nc2c(c(=O)[nH]1)C(c1cnc3ccccc3c1)CC(=O)N2` (centres unmarked) [LSL-11-36, 2-propylmercapto-5-(quinolin-3-yl)-5,6-dihydropyrido[2,3-d]pyrimidin-4,7(3H,8H)-dione], the MIC under setting [1] came out at 8 µg/mL (≈ 21.8 µM). As for `CCCSc1nc2c(c(=O)[nH]1)C(c1ccc(Oc3ccccc3)cc1)CC(=O)N2` (centres unmarked) [LSL-9-32, 2-propylmercapto-5-(4-phenoxyphenyl)-5,6-dihydropyrido[2,3-d]pyrimidin-4,7(3H,8H)-dione], under setting [1], the minimum inhibitory concentration (MIC) is over 64 µg/mL. With `CCCSc1nc2c(c(=O)[nH]1)C(c1ccc(O)c([N+](=O)[O-])c1)CC(=O)N2` (centres unmarked) [LSL-10-04, 2-propylmercapto-5-(4-hydroxy-3-nitrophenyl)-5,6-dihydropyrido[2,3-d]pyrimidin-4,7(3H,8H)-dione], the “anti-mycobacterium tuberculosis MIC compared with the positive control drug INH” value is given as “equivalent to that of the positive control drug INH”. For the same molecule, under setting [1], the minimum inhibitory concentration (MIC) worked out at 0.625 µg/mL (≈ 1.66 µM).

For the molecule `CCCSc1nc2c(c(=O)[nH]1)C(c1ccccn1)CC(=O)N2` (centres unmarked) [LSL-11-26, 2-propylmercapto-5-(pyridin-2-yl)-5,6-dihydropyrido[2,3-d]pyrimidin-4,7(3H,8H)-dione], the MIC under setting [1] came to 2 µg/mL (≈ 6.32 µM). As to `COc1ccc(C2CC(=O)Nc3nc(SC)[nH]c(=O)c32)c(O)c1` (centres unmarked) [LSL-9-01, 2-methylmercapto-5-(2-hydroxy-4-methoxyphenyl)-5,6-dihydropyrido[2,3-d]pyrimidin-4,7(3H,8H)-dione], the minimum inhibitory concentration (MIC) under setting [1] was found to be 8 µg/mL (≈ 24 µM). For `CCCOc1ccc(C2CC(=O)Nc3nc(SCCC)[nH]c(=O)c32)c(O)c1` (centres unmarked) [LSL-9-29, 2-propylmercapto-5-(2-hydroxy-4-propoxyphenyl)-5,6-dihydropyrido[2,3-d]pyrimidin-4,7(3H,8H)-dione], the “anti-mycobacterium tuberculosis MIC compared with the positive control drug INH” value is on record as “equivalent to that of the positive control drug INH”. The minimum inhibitory concentration (MIC) under setting [1] came out at 0.5 µg/mL (≈ 1.28 µM). In the case of `CCCSc1nc2c(c(=O)[nH]1)C(c1ccc(OC)c(OC)c1)CC(=O)N2` (centres unmarked) [LSL-7-46, 2-propylmercapto-5-(3,4-dimethoxyphenyl)-5,6-dihydropyrido[2,3-d]pyrimidin-4,7(3H,8H)-dione], the MIC under setting [1] was determined as 8 µg/mL (≈ 21.3 µM). Regarding `CCCCSc1nc2c(c(=O)[nH]1)C(c1ccc(OCCC)cc1)CC(=O)N2` (centres unmarked) [LSL-10-23, 2-butylmercapto-5-(4-propoxyphenyl)-5,6-dihydropyrido[2,3-d]pyrimidin-4,7(3H,8H)-dione], the minimal inhibitory concentration (MIC) under setting [1] turned out to be 16 µg/mL (≈ 41.3 µM). `CCCCCCCOc1ccc(C2CC(=O)Nc3nc(SCCC)[nH]c(=O)c32)cc1` (centres unmarked) [LSL-11-39, 2-propylmercapto-5-(4-heptoxyphenyl)-5,6-dihydropyrido[2,3-d]pyrimidin-4,7(3H,8H)-dione]: the “anti-mycobacterium tuberculosis MIC compared with the positive control drug INH” value was “equivalent to that of the positive control drug INH” and the minimal inhibitory concentration (MIC) stood at 0.625 µg/mL (≈ 1.45 µM). For `CCCSc1nc2c(c(=O)[nH]1)C(c1ccc(OC)c(O)c1O)CC(=O)N2` (centres unmarked) [LSL-9-23, 2-propylmercapto-5-(2,3-dihydroxy-4-methoxyphenyl)-5,6-dihydropyrido[2,3-d]pyrimidin-4,7(3H,8H)-dione], the MIC under setting [1] came to 64 µg/mL (≈ 170 µM). With `CCCSc1nc2c(c(=O)[nH]1)C(c1ccc(Br)cc1[N+](=O)[O-])CC(=O)N2` (centres unmarked) [LSL-11-25, 2-propylmercapto-5-(2-nitro-4-bromophenyl)-5,6-dihydropyrido[2,3-d]pyrimidin-4,7(3H,8H)-dione], the MIC under setting [1] turned out to be 4 µg/mL (≈ 9.11 µM).

Turning to `CCCSc1nc2nccc(-c3ccc(OC)cc3)c2c(=O)[nH]1` [LSL-11-02, 2-propylmercapto-5-(4-methoxyphenyl)-pyrido[2,3-d]pyrimidin-4(3H)-one], the “anti-mycobacterium tuberculosis MIC compared with the positive control drug INH” value is on record as “equivalent to that of the positive control drug INH”. Also, the minimum inhibitory concentration (MIC) under setting [1] is 0.5 µg/mL (≈ 1.53 µM).

On to `CCCSc1nc2c(c(=O)[nH]1)C(c1ccc(I)cc1)CC(=O)N2` (centres unmarked) [LSL-9-19, 2-propylmercapto-5-(4-iodophenyl)-5,6-dihydropyrido[2,3-d]pyrimidin-4,7(3H,8H)-dione], for which, under setting [1], the minimal inhibitory concentration (MIC) was over 64 µg/mL. Regarding `CCCSc1nc2c(c(=O)[nH]1)C(c1ccc(SC)cc1)CC(=O)N2` (centres unmarked) [LSL-11-21, 2-propylmercapto-5-(4-methylthiophenyl)-5,6-dihydropyrido[2,3-d]pyrimidin-4,7(3H,8H)-dione], the “anti-mycobacterium tuberculosis MIC compared with the positive control drug INH” value is given as “equivalent to that of the positive control drug INH”. Further, under setting [1], the minimal inhibitory concentration (MIC) stood at 0.5 µg/mL (≈ 1.38 µM). As to `CCCSc1nc2[nH]c(=O)cc(-c3ccc(OC)cc3)c2c(=O)[nH]1` [LSL-11-09, 2-propylmercapto-5-(4-methoxyphenyl)-pyrido[2,3-d]pyrimidin-4,7(3H,8H)-dione], the “anti-mycobacterium tuberculosis MIC compared with the positive control drug INH” value was “equivalent to that of the positive control drug INH”. Moreover, the minimum inhibitory concentration (MIC) under setting [1] stood at 0.25 µg/mL (≈ 0.728 µM).

For the molecule `CSc1nc2c(c(=O)[nH]1)C(c1ccc([N+](=O)[O-])cc1)CC(=O)N2` (centres unmarked) [LSL-7-49, 2-methylmercapto-5-(4-nitrophenyl)-5,6-dihydropyrido[2,3-d]pyrimidin-4,7(3H,8H)-dione], the minimal inhibitory concentration (MIC) under setting [1] amounted to 64 µg/mL (≈ 193 µM). Regarding `CCCSc1nc2c(c(=O)[nH]1)C(c1ccc(C)cc1)CC(=O)N2` (centres unmarked) [LSL-9-37, 2-propylmercapto-5-(4-methylphenyl)-5,6-dihydropyrido[2,3-d]pyrimidin-4,7(3H,8H)-dione], under setting [1], the minimum inhibitory concentration (MIC) is 2 µg/mL (≈ 6.07 µM). Consider `CCCSc1nc2c(c(=O)[nH]1)C(c1nc3ccccc3s1)CC(=O)N2` (centres unmarked) [LSL-11-18, 2-propylmercapto-5-(benzothiazol-2-yl)-5,6-dihydropyrido[2,3-d]pyrimidin-4,7(3H,8H)-dione], for which the minimal inhibitory concentration (MIC) under setting [1] was 2 µg/mL (≈ 5.37 µM). Still for that read-out and setting: in the case of `CCCSc1nc2c(c(=O)[nH]1)C(c1ccc3nccnc3c1)CC(=O)N2` (centres unmarked) [LSL-11-34, 2-propylmercapto-5-(quinoxalin-6-yl)-5,6-dihydropyrido[2,3-d]pyrimidin-4,7(3H,8H)-dione] it was 4 µg/mL (≈ 10.9 µM); in that of `CCCSc1nc2c(c(=O)[nH]1)C(c1ccc(OC)nc1)CC(=O)N2` (centres unmarked) [LSL-11-35, 2-propylmercapto-5-(6-methoxypyridin-3-yl)-5,6-dihydropyrido[2,3-d]pyrimidin-4,7(3H,8H)-dione], 1 µg/mL (≈ 2.89 µM).

For the molecule `CSc1nc2c(c(=O)[nH]1)C(c1cccc([N+](=O)[O-])c1)CC(=O)N2` (centres unmarked) [LSL-9-09, 2-methylmercapto-5-(3-nitrophenyl)-5,6-dihydropyrido[2,3-d]pyrimidin-4,7(3H,8H)-dione], under setting [1], the “Inhibitory activity against Mycobacterium tuberculosis, MIC, MTB H37Rv” value came out at 64 µg/mL. Take `CCCSc1nc2c(c(=O)[nH]1)C(c1cccc3ncccc13)CC(=O)N2` (centres unmarked) [LSL-10-07, 2-propylmercapto-5-(quinolin-5-yl)-5,6-dihydropyrido[2,3-d]pyrimidin-4,7(3H,8H)-dione]: under setting [1], the MIC came out at 16 µg/mL (≈ 43.7 µM). For `COc1ccc(C2CC(=O)Nc3nc(SC)[nH]c(=O)c32)cc1O` (centres unmarked) [LSL-7-39, 2-methylmercapto-5-(3-hydroxy-4-methoxyphenyl)-5,6-dihydropyrido[2,3-d]pyrimidin-4,7(3H,8H)-dione], under setting [1], the MIC turned out to be 16 µg/mL (≈ 48 µM). The same measure, in the same setting: in the case of `CCCSc1nc2c(c(=O)[nH]1)C(c1ccc(N3CCSCC3)cc1)CC(=O)N2` (centres unmarked) [LSL-10-50, 2-propylmercapto-5-(4-thiomorpholinophenyl)-5,6-dihydropyrido[2,3-d]pyrimidin-4,7(3H,8H)-dione] it was 1 µg/mL (≈ 2.4 µM).

Values taken from patent publication US20230303561A1, “PYRIMIDINONE DERIVATIVE, PREPARATION METHOD THEREOF AND USE THEREOF IN RESISTING MYCOBACTERIUM TUBERCULOSIS INFECTION” (INSTITUTE OF MEDICINAL BIOTECHNOLOGY, CHINESE ACADEMY OF …, priority 2020, published 2023).
